Active and inactive are the calls of the source. The calls are words filed in the database; no cut-off is given here.
Key:
[1] = target: Neuronal acetylcholine receptor subunit alpha-7 (Rattus norvegicus, UniProt Q05941); test: Displacement of [125I]alpha-BTX from alpha-7 nAChR in rat hippocampus membrane; format: cell membranes
Cytochrome P450 2D6 = Cytochrome P450 2D6 (Homo sapiens, UniProt P10635); test: Inhibition of CYP2D6; format: ADME
[2] = target: Serotonin 3 (5-HT3) receptor; test: Binding affinity to 5HT3 receptor; format: protein-complex assay, Homo sapiens
[3] = target: Adrenergic receptor alpha-1 (Homo sapiens, UniProt P35348+P25100+P35368); test: Binding affinity to adrenergic alpha-1 receptor; format: protein assay
[4] = target: Adrenergic receptor alpha-2 (Homo sapiens, UniProt P08913+P18825+P18089); test: Binding affinity to adrenergic alpha2 receptor; format: protein assay
Adrenergic receptor beta = Adrenergic receptor beta (Homo sapiens, UniProt P08588+P07550+P13945); test: Binding affinity to adrenergic beta receptor; format: protein assay
D(1A) dopamine receptor = D(1A) dopamine receptor (Homo sapiens, UniProt P21728); test: Binding affinity to D1 receptor
D(2) dopamine receptor = D(2) dopamine receptor (Homo sapiens, UniProt P14416); test: Binding affinity to D2 receptor
D(3) dopamine receptor = D(3) dopamine receptor (Homo sapiens, UniProt P35462); test: Binding affinity to D3 receptor
D(4) dopamine receptor = D(4) dopamine receptor (Homo sapiens, UniProt P21917); test: Binding affinity to D4 receptor
Histamine H1 receptor = Histamine H1 receptor (Homo sapiens, UniProt P35367); test: Binding affinity to histamine H1 receptor
Histamine H3 receptor = Histamine H3 receptor (Homo sapiens, UniProt Q9Y5N1); test: Binding affinity to histamine H3 receptor
[5] = target: Glutamate receptor ionotropic AMPA (Homo sapiens, UniProt P42261+P42262+P42263+P48058); test: Binding affinity to AMPA receptor; format: protein-complex assay
[6] = target: Glutamate [NMDA] receptor; test: Binding affinity to NMDA receptor PCP site; format: protein-complex assay, Homo sapiens
[7] = Cmax in rat at 30 mg/kg, po; format: ADME, organism-based; parameters: dose 30 mg/kg, route oral; details: in vivo
[8] = Tmax in rat at 10 mg/kg, po; format: ADME, organism-based; parameters: dose 10 mg/kg, route oral; details: in vivo
[9] = Tmax in rat at 30 mg/kg, po; format: ADME, organism-based; parameters: dose 30 mg/kg, route oral; details: in vivo
[10] = Half life in rat at 3 mg/kg, iv; format: ADME, organism-based; parameters: dose 3 mg/kg, route intravenous; details: in vivo
[11] = Half life in rat at 10 mg/kg, po; format: ADME, organism-based; parameters: dose 10 mg/kg, route oral; details: in vivo
[12] = Half life in rat at 30 mg/kg, po; format: ADME, organism-based; parameters: dose 30 mg/kg, route oral; details: in vivo
[13] = Clearance in rat at 3 mg/kg, iv; format: ADME, organism-based; parameters: dose 3 mg/kg, route intravenous; details: in vivo
[14] = Volume of distribution in rat at 3 mg/kg, iv; format: ADME, organism-based; parameters: dose 3 mg/kg, route intravenous; details: in vivo, read-out: Vss
[15] = Oral bioavailability in rat at 10 mg/kg, po; format: ADME, organism-based; details: in vivo
[16] = Oral bioavailability in rat at 30 mg/kg, po; format: ADME, organism-based; details: in vivo
[17] = Permeability in rat assessed as ratio of concentration in brain to plasma at 10 mg/kg, po; format: ADME, organism-based; parameters: dose 10 mg/kg, route oral; details: brain and plasma, read-out: BBR
[18] = AUC (0-infinity) in monkey at 3 mg/kg, iv; format: ADME, organism-based, Macaca mulatta; parameters: dose 3 mg/kg, route intravenous, time infinity; details: rhesus monkey, plasma
[19] = AUC (0-infinity) in monkey at 1 mg/kg, po; format: ADME, organism-based, Macaca mulatta; parameters: time infinity, dose 1 mg/kg, route oral; details: rhesus monkey, plasma
[20] = AUC (0-infinity) in monkey at 3 mg/kg, po; format: ADME, organism-based, Macaca mulatta; parameters: time infinity, dose 3 mg/kg, route oral; details: rhesus monkey, plasma
[21] = AUC (0-infinity) in monkey at 10 mg/kg, po; format: ADME, organism-based, Macaca mulatta; parameters: time infinity, dose 10 mg/kg, route oral; details: rhesus monkey, plasma
[22] = Cmax in monkey at 3 mg/kg, iv; format: ADME, organism-based, Macaca mulatta; parameters: dose 3 mg/kg, route intravenous; details: rhesus monkey, in vivo
[23] = Cmax in monkey at 1 mg/kg, po; format: ADME, organism-based, Macaca mulatta; parameters: dose 1 mg/kg, route oral; details: rhesus monkey, in vivo
[24] = Cmax in monkey at 3 mg/kg, po; format: ADME, organism-based, Macaca mulatta; parameters: dose 3 mg/kg, route oral; details: rhesus monkey, in vivo
[25] = Cmax in monkey at 10 mg/kg, po; format: ADME, organism-based, Macaca mulatta; parameters: dose 10 mg/kg, route oral; details: rhesus monkey, in vivo
[26] = Tmax in monkey at 3 mg/kg, iv; format: ADME, organism-based, Macaca mulatta; parameters: dose 3 mg/kg, route intravenous; details: rhesus monkey, in vivo
[27] = Tmax in monkey at 1 mg/kg, po; format: ADME, organism-based, Macaca mulatta; parameters: dose 1 mg/kg, route oral; details: rhesus monkey, in vivo
[28] = Tmax in monkey at 3 mg/kg, po; format: ADME, organism-based, Macaca mulatta; parameters: dose 3 mg/kg, route oral; details: rhesus monkey, in vivo
[29] = Tmax in monkey at 10 mg/kg, po; format: ADME, organism-based, Macaca mulatta; parameters: dose 10 mg/kg, route oral; details: rhesus monkey, in vivo
[30] = Half life in monkey at 3 mg/kg, iv; format: ADME, organism-based, Macaca mulatta; parameters: dose 3 mg/kg, route intravenous; details: rhesus monkey, in vivo
[31] = Half life in monkey at 1 mg/kg, po; format: ADME, organism-based, Macaca mulatta; parameters: dose 1 mg/kg, route oral; details: rhesus monkey, in vivo
[32] = Half life in monkey at 3 mg/kg, po; format: ADME, organism-based, Macaca mulatta; parameters: dose 3 mg/kg, route oral; details: rhesus monkey, in vivo
[33] = Half life in monkey at 10 mg/kg, po; format: ADME, organism-based, Macaca mulatta; parameters: dose 10 mg/kg, route oral; details: rhesus monkey, in vivo
[34] = Clearance in monkey at 3 mg/kg, iv; format: ADME, organism-based, Macaca mulatta; parameters: dose 3 mg/kg, route intravenous; details: rhesus monkey, in vivo
[35] = Volume of distribution in monkey at 3 mg/kg, iv; format: ADME, organism-based, Macaca mulatta; parameters: dose 3 mg/kg, route intravenous; details: rhesus monkey, in vivo, read-out: Vss
[36] = Oral bioavailability in monkey at 1 mg/kg, po; format: ADME, organism-based, Macaca mulatta; details: rhesus monkey, in vivo
[37] = Cmax in rat at 10 mg/kg, po; format: ADME, organism-based; parameters: dose 10 mg/kg, route oral; details: in vivo
[38] = Oral bioavailability in monkey at 3 mg/kg, po; format: ADME, organism-based, Macaca mulatta; details: rhesus monkey, in vivo
[39] = Oral bioavailability in monkey at 10 mg/kg, po; format: ADME, organism-based, Macaca mulatta; details: rhesus monkey, in vivo
Rattus norvegicus [40] = test: Effect on MK-801-induced sensory gating in Wistar rat at 1 mg/kg, sc; format: functional, organism-based; parameters: dose 1 mg/kg
Rattus norvegicus [41] = test: Increase in extracellular dopamine level in Wistar rat medial prefrontal cortex at 10 mg/kg, po; format: functional, organism-based; parameters: dose 10 mg/kg
Rattus norvegicus [42] = test: Increase in extracellular dopamine level in Wistar rat medial prefrontal cortex at 30 mg/kg, po; format: functional, organism-based; parameters: dose 30 mg/kg
Rattus norvegicus [43] = test: Reverse activity against scopolamine-induced impairment of cognitive performance in Wistar rat at 3 mg/kg, po by 8-arm radial maze task method; format: functional, organism-based; parameters: dose 3 mg/kg
Rattus norvegicus [44] = test: Reverse activity against scopolamine-induced impairment of cognitive performance in Wistar rat at 10 mg/kg, po by 8-arm radial maze task method; format: functional, organism-based; parameters: dose 10 mg/kg
Cytochrome P450 1A2 = Cytochrome P450 1A2 (Homo sapiens, UniProt P05177); test: Inhibition of CYP1A2; format: ADME
Cytochrome P450 2C9 = Cytochrome P450 2C9 (Homo sapiens, UniProt P11712); test: Inhibition of CYP2C9; format: ADME
Cytochrome P450 2C19 = Cytochrome P450 2C19 (Homo sapiens, UniProt P33261); test: Inhibition of CYP2C19; format: ADME
Cytochrome P450 3A4 = Cytochrome P450 3A4 (Homo sapiens, UniProt P08684); test: Inhibition of CYP3A4; format: ADME
[45] = target: Neuronal acetylcholine receptor subunit alpha-7 (Homo sapiens) (UniProt P36544); test: Activity at alpha-7 nAChR assessed as stimulation of relative inward current in cultured hippocampal neurons relative to choline; format: functional, tissue-based; details: Hippocampus
[46] = target: Neuronal acetylcholine receptor; alpha4/beta2 (Rattus norvegicus, UniProt P09483+P12390); test: Inhibition of [3H]Cytisine binding to alpha-4-beta-2 nACh receptor in rat cerebral cortex membrane; format: cell membranes
[47] = target: Muscarinic acetylcholine receptor; test: Binding affinity to muscarinic receptor; format: protein assay, Homo sapiens
[48] = target: 5-hydroxytryptamine receptor 1A (Homo sapiens, UniProt P08908); test: Binding affinity to 5HT1A receptor
[49] = target: Serotonin 2 (5-HT2) receptor (Homo sapiens, UniProt P41595+P28223+P28335); test: Binding affinity to 5HT2 receptor; format: protein assay
[50] = target: Glutamate [NMDA] receptor; test: Binding affinity to NMDA receptor glycine site; format: protein-complex assay, Homo sapiens
[51] = target: 5-hydroxytryptamine receptor 3A (Cavia porcellus) (UniProt O70212); test: Antagonist activity against 5HT3 receptor assessed as inhibition of 5HT-induced contraction of guinea pig ileum; format: functional, tissue-based
[52] = AUC (0-infinity) in rat at 10 mg/kg, po; format: ADME, organism-based; parameters: time infinity, dose 10 mg/kg, route oral; details: plasma
[53] = AUC (0-infinity) in rat at 30 mg/kg, po; format: ADME, organism-based; parameters: time infinity, dose 30 mg/kg, route oral; details: plasma

Neuronal acetylcholine receptor subunit alpha-7, sequence (Q05941 whole entry): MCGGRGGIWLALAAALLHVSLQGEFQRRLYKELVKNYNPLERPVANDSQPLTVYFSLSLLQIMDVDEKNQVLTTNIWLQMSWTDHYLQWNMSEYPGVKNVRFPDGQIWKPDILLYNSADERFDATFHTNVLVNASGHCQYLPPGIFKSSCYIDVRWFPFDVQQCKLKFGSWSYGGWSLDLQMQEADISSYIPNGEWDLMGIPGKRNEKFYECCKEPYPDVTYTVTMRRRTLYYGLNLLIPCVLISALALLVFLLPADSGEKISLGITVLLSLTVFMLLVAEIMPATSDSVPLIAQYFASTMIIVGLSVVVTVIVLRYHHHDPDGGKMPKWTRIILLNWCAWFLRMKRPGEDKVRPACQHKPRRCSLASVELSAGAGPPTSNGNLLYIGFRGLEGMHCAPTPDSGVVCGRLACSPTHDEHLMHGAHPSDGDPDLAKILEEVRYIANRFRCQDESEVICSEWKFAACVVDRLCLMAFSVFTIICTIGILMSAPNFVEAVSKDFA
Cytochrome P450 2D6, sequence (P10635 whole entry): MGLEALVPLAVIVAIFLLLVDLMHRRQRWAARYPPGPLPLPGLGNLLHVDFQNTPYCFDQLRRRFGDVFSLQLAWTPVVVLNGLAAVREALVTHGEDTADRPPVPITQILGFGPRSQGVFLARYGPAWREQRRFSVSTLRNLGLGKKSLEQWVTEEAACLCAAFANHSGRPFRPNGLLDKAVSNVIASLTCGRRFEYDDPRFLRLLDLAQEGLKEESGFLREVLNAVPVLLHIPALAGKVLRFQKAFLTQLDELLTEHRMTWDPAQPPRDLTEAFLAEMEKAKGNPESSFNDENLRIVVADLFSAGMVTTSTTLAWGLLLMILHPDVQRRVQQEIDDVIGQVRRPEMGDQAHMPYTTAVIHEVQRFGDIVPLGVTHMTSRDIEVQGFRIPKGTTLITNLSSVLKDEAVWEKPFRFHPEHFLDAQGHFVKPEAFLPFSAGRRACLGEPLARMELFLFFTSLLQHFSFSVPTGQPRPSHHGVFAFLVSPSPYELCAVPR
Neuronal acetylcholine receptor subunit alpha-7 (Homo sapiens), sequence (P36544 whole entry): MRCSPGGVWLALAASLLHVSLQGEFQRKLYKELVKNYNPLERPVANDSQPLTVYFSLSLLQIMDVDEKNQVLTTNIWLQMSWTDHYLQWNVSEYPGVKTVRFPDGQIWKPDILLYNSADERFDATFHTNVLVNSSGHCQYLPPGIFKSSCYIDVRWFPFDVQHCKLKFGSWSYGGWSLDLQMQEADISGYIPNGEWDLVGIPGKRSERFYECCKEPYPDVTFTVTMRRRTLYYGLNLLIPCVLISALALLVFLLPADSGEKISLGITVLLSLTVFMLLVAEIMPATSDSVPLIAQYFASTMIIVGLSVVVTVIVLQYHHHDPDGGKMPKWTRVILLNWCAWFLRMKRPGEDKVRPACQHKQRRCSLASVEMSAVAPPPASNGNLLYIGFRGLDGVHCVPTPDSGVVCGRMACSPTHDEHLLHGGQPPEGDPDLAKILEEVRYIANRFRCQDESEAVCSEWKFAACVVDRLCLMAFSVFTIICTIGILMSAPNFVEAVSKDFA
Cytochrome P450 3A4, sequence (P08684 whole entry): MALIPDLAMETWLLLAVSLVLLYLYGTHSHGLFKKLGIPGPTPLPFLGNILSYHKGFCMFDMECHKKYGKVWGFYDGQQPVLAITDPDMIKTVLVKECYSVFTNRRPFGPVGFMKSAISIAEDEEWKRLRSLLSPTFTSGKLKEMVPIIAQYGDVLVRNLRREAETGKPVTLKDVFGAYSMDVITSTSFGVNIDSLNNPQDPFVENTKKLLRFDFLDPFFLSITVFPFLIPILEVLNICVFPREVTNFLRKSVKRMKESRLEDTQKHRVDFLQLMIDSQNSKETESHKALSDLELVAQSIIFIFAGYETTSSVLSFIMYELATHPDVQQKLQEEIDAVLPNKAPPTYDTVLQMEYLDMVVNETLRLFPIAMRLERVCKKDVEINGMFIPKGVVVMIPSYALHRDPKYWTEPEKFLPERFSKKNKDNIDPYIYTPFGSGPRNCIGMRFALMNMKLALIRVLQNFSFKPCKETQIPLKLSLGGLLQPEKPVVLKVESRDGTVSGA
Neuronal acetylcholine receptor; alpha4/beta2, sequence (P09483 whole entry): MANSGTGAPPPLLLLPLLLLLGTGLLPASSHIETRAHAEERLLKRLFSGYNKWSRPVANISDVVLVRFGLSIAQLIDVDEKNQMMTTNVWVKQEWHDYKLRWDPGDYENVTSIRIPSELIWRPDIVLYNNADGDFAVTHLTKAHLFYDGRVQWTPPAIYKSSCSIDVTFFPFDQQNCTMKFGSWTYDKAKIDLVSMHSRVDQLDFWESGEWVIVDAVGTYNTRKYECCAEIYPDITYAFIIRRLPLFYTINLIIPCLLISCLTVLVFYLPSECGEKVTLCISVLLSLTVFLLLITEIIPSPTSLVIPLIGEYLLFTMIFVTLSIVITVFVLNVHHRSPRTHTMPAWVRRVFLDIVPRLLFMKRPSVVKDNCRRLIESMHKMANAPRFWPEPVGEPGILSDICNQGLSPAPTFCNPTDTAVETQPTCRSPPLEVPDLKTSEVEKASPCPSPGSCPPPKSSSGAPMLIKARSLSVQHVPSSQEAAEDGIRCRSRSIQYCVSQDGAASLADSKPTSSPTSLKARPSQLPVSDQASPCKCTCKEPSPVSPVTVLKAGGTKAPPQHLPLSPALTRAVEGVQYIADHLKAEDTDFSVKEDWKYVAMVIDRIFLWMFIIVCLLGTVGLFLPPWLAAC
Neuronal acetylcholine receptor; alpha4/beta2, sequence (P12390 whole entry): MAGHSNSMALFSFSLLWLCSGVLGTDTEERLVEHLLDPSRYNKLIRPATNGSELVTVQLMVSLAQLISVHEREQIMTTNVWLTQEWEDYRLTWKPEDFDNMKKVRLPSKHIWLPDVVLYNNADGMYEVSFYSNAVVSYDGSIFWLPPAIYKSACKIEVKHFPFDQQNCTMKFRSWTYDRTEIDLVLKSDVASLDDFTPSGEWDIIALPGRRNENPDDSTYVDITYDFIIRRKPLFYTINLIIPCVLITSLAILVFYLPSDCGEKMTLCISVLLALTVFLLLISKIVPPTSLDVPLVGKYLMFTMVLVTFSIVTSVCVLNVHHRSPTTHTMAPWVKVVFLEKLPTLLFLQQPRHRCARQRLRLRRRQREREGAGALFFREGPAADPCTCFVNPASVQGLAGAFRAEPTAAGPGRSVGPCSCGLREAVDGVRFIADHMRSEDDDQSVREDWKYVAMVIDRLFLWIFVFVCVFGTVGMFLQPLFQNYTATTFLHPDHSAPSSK
D(1A) dopamine receptor, sequence (P21728 whole entry): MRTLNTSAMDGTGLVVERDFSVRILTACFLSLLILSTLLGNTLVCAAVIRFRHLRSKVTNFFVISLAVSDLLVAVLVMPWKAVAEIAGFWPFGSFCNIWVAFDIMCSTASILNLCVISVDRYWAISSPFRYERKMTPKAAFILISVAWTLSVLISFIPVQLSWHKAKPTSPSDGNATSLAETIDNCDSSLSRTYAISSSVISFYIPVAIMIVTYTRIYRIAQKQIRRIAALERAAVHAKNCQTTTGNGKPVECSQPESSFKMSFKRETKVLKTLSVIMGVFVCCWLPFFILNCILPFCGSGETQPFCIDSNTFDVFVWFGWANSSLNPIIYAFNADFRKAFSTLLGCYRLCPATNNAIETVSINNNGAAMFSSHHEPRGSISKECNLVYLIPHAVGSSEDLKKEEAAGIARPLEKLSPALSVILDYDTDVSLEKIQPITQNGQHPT
D(3) dopamine receptor, sequence (P35462 whole entry): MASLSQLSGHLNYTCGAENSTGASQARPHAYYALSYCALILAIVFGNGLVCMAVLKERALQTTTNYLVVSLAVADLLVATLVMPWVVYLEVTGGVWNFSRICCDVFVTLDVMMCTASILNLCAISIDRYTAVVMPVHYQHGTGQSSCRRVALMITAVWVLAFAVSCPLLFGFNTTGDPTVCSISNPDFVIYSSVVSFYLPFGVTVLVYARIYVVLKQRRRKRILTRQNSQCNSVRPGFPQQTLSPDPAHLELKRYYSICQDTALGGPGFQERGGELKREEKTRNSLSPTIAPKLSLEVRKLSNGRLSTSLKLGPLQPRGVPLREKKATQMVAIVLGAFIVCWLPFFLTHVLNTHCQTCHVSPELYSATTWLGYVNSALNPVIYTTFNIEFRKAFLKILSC
D(4) dopamine receptor, sequence (P21917 whole entry): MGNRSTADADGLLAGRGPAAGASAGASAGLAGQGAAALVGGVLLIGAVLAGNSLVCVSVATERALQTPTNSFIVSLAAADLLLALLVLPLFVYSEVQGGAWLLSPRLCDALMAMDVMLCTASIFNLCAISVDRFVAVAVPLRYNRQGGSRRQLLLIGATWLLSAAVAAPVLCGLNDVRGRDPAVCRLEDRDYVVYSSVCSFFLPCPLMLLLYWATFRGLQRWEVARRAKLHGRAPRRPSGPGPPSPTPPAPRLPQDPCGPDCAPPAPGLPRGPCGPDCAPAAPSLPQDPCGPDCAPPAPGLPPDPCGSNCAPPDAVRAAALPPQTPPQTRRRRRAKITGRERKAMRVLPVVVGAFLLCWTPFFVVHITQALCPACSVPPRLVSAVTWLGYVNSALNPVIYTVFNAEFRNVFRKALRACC
D(2) dopamine receptor, sequence (P14416 whole entry): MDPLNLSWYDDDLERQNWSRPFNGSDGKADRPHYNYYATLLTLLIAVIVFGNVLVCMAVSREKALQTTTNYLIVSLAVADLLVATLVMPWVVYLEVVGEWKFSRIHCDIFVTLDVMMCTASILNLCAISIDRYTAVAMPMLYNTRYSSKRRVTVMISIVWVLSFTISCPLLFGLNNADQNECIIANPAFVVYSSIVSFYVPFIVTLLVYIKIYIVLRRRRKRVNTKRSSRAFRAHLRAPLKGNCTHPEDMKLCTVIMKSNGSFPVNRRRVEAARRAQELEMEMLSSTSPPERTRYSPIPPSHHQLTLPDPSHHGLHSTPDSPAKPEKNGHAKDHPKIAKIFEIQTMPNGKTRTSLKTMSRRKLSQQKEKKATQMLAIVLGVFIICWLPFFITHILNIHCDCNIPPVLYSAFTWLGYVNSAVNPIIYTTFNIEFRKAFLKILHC

O=C1O[C@@]2(CN3CCC2CC3)CN1c1ccc2c(c1)CCC2
Ki [1]: 0.2 µM

O=C1OC2(CN3CCC2CC3)CN1c1ccc2ncccc2c1 (single isomer, unassigned)
IC50 [1]: > 1 µM

Cc1cc2cc(N3C[C@@]4(CN5CCC4CC5)OC3=O)ccc2o1
Ki [1]: 0.038 µM | IC50 (Cytochrome P450 2D6): > 30 µM

CCc1c(C)oc2ccc(N3C[C@@]4(CN5CCC4CC5)OC3=O)cc12
Ki [1]: 0.015 µM

Cc1oc2ccc(N3C[C@@]4(CN5CCC4CC5)OC3=O)cc2c1Br
Ki [1]: 0.011 µM

Cc1coc2ccc(N3C[C@@]4(CN5CCC4CC5)OC3=O)cc12
IC50 [2]: 0.01 µM | IC50 [3]: > 10 µM | IC50 [4]: > 10 µM | IC50 (Adrenergic receptor beta): > 10 µM | IC50 (D(1A) dopamine receptor): > 10 µM | IC50 (D(2) dopamine receptor): > 10 µM | IC50 (D(3) dopamine receptor): > 10 µM | IC50 (D(4) dopamine receptor): > 10 µM | IC50 (Histamine H1 receptor): > 10 µM | IC50 (Histamine H3 receptor): > 10 µM | IC50 [5]: > 10 µM | IC50 [6]: > 10 µM | Cmax [7]: 618 ng/mL | Tmax [8]: 0.44 h | Tmax [9]: 0.38 h | half-life [10]: 3.3 h | half-life [11]: 3 h | half-life [12]: 1.7 h | clearance [13]: 83.3 mL/min/kg | Vd [14]: 7.59 L/kg | bioavailability [15]: 10.5% | bioavailability [16]: 17.3% | Kp [17]: 10.2 | AUC(0-inf) [18]: 732 ng·h/mL | AUC(0-inf) [19]: 63 ng·h/mL | AUC(0-inf) [20]: 387 ng·h/mL | AUC(0-inf) [21]: 2020 ng·h/mL | Cmax [22]: 288 ng/mL | Cmax [23]: 9.1 ng/mL | Cmax [24]: 75.5 ng/mL | Cmax [25]: 384 ng/mL | Tmax [26]: 0.36 h | Tmax [27]: 2 h | Tmax [28]: 3.3 h | Tmax [29]: 2.3 h | half-life [30]: 1.9 h | half-life [31]: 4.2 h | half-life [32]: 5.4 h | half-life [33]: 6 h | clearance [34]: 70.2 mL/min/kg | Vd [35]: 10.7 L/kg | bioavailability [36]: 25.8% | Cmax [37]: 120 ng/mL | bioavailability [38]: 57.2% | bioavailability [39]: 82.8% | Activity (Rattus norvegicus [40]): Active | Activity (Rattus norvegicus [41]): Active | Activity (Rattus norvegicus [42]): Active | Activity (Rattus norvegicus [43]): Dose-dependent effect | Activity (Rattus norvegicus [44]): Dose-dependent effect | Ki [1]: 0.003 µM | IC50 (Cytochrome P450 2D6): > 30 µM | Activity (Cytochrome P450 1A2): Not Active | Activity (Cytochrome P450 2C9): Not Active | Activity (Cytochrome P450 2C19): Not Active | Activity (Cytochrome P450 3A4): Not Active | Activity ([45]; filed as partial agonist): Partial agonist | IC50 [46]: > 10 µM | IC50 [47]: > 10 µM | IC50 [48]: > 10 µM | IC50 [49]: > 10 µM | IC50 [50]: > 10 µM | Activity [51]: Active | AUC(0-inf) [52]: 225 ng·h/mL | AUC(0-inf) [53]: 1010 ng·h/mL

O=C1O[C@]2(CN3CCC2CC3)CN1c1ccc2c(c1)OCO2
Ki [1]: 0.037 µM | IC50 (Cytochrome P450 2D6): > 30 µM | Activity ([45]; filed as agonist): Agonist

From ChEMBL document CHEMBL1138068 (J Med Chem, 2006)
